From patent US20210130473A1, “TGFßR1 INHIBITOR-ASGR ANTIBODY CONJUGATES AND USES THEREOF” (Silverback Therapeutics, Inc., priority 2019, published 2021)

Columns and labels:
ALK5 = molecular target: T1, ALK5 (Homo sapiens, UniProt P36897); assay: ALK5 enzyme inhibition assay (casein substrate, 10 uM ATP, 33P-ATP, filter-binding; Reaction Biology Corp); type: biochemical
T1 construct: purchased Reaction Biology Corp (Malvern, Pa.)
T1 sequence (P36897 34-503): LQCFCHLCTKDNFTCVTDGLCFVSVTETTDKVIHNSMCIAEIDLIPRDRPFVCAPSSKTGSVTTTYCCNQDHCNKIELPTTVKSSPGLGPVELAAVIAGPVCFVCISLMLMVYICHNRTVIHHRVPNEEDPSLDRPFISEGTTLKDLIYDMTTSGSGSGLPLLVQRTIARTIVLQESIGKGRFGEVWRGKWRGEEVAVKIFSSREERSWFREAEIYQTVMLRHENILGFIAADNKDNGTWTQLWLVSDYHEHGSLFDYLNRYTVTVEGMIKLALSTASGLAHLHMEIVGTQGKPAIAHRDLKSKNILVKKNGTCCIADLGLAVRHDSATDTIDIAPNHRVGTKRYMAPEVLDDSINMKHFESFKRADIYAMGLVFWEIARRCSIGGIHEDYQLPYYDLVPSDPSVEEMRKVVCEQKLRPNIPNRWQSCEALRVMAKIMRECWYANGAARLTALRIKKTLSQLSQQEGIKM
Protocol: ALK5 enzyme inhibition assays were performed by Reaction Biology Corp (Malvern, Pa.). 1 mg/mL of peptide substrate (casein) and 10 uM ATP were prepared in a mixture of fresh reaction buffer. The kinase was delivered into the substrate solution which was gently mixed. Compounds in 100% DMSO were added to the kinase reaction mixture by Acoustic technology (Echo550; nanoliter range) and the mixture was incubated for 20 min at room temperature. ^33P-ATP (Specific activity 10 uCi/uL) was added into the reaction mixture to initiate the reaction and the reaction mixture was incubated for 2 hours at room temperature. Radioactivity was detected by filter-binding method and kinase activity data were expressed as the percent remaining kinase activity in test samples compared to vehicle (dimethyl sulfoxide) reactions. IC50 values and curve fits were obtained using Prism (GraphPad Software).

[1] = tested on: TGFβ/SMAD Signaling Pathway SBE reporter cell line; assay: TGFb reporter assay in HEK293 SBE-LUC reporter cells (luciferase); type: cell-based; conditions: Homo sapiens, key of the table says IC50, read-out: EC50 (the source's name)
Protocol: TGFβ/SMAD Signaling Pathway SBE reporter cell line was obtained from BPS Bioscience. Cells are passed, expanded, and stored in liquid nitrogen as per the supplier's instructions with the exception that growth media is changed to DMEM-C with Geneticin (DMEM supplemented with 10% fetal bovine serum, 1×NEAA, 1 mM Pyruvate, 2 mM glutamine, 50 μg/mL penicillin, 50 U/mL streptomycin and 400 μg/mL of Geneticin). The assay media is MEM supplemented with 0.5% fetal bovine serum, 1×NEAA, 1 mM Pyruvate, 50 μg/mL penicillin and 50 U/mL streptomycin.
Compounds are assayed to measure their activity as ALK5 inhibitors.
The HEK293 SBE-LUC reporter cells from Example 15 were grown in DMEM-C with Geneticin (DMEM supplemented with […], 1×NEAA, 1 mM Pyruvate, 2 mM glutamine, 50 μg/mL penicillin, 50 U/mL streptomycin and 400 ug/mL of Geneticin). The assay media was MEM supplemented with 0.5% fetal bovine serum, 1×NEAA, 1 mM Pyruvate, 50 μg/mL penicillin and 50 U/mL streptomycin.
The HEK293 SBE-LUC reporter cells were harvested from the tissue culture flasks by incubation in small quantity of Versene at room temperature for three to five minutes after the media in the flask is removed and cells rinsed with PBS. Cells were counted and diluted in the assay media at ˜0.8×10^6 cells/mL then 50 uL/well were added to 96-well assay plate. Test samples (at desired concentrations diluted in assay media) were added to assay plate containing the 50 uL/well of cells (or media only), 50 uL per well, and incubated for 5-6 hours at 37° C. in a 5% CO2 humidified incubator. After that time, 15 uL of TGFb diluted to 12.5 ng/mL in the assay media was added to the plate. Controls included TGFb titration (from 25 to 0 ng/mL) without inhibitors, and media only (without cells, inhibitor or TGFb). Plates were incubated at 37° C. in a 5% CO2 humidified incubator for 18h. Luciferase substrate solution was subsequently added at 75 uL per well, incubated in dark with shaking at room temperature for 10 min, and luminescence was measured using a luminometer.

| SMILES | IC50 (ALK5; Table 11) [nM] | IC50 [1] [nM] | IC50 (ALK5; Table 12) [nM] |
| --- | --- | --- | --- |
| Cc1cccc(-c2nc(CNCc3cccc(Cl)c3C)[nH]c2-c2ccc3ncnn3c2)n1 [Compound 47] | 0.1 to 50 | 0.1 to 10 |  |
| COc1ccccc1CNCc1nc(-c2cccc(C)n2)c(-c2ccc3ncnn3c2)[nH]1 [Compound 17] | 50 to 100 | 10 to 100 |  |
| Cc1cccc(-c2nc(CNCc3cccc(-c4ccccc4)c3)[nH]c2-c2ccc3ncnn3c2)n1 [Compound 51] | 100 to 1000 | 100 to 1000 |  |
| Cc1cccc(-c2nc(CNCc3ccccc3-c3cc(F)cc(F)c3)[nH]c2-c2ccc3ncnn3c2)n1 [Compound 39] | 0.1 to 50 | 10 to 100 |  |
| Cc1cccc(-c2nc(CNCc3cc(Cl)ccc3Cl)[nH]c2-c2ccc3ncnn3c2)n1 [Compound 5] | 50 to 100 | 10 to 100 |  |
| Cc1cccc(-c2nc(CNCc3ccccc3-c3cccc(F)c3)[nH]c2-c2ccc3ncnn3c2)n1 [Compound 37] | 50 to 100 | 10 to 100 |  |
| Cc1cccc(-c2nc(CNCc3cccc(C)c3C)[nH]c2-c2ccc3ncnn3c2)n1 [Compound 45] | 50 to 100 | 0.1 to 10 |  |
| Cc1cccc(-c2nc(C3CCCNC3)[nH]c2-c2ccc3ncnn3c2)n1 (stereo not shown) [Compound 1.48] |  | 100 to 1000 | 1000 to 10000 |
| Cc1cccc(-c2nc(CNCc3ccccc3-c3ccccn3)[nH]c2-c2ccc3ncnn3c2)n1 [Compound 40] | 100 to 1000 | 10 to 100 |  |
| Cc1cccc(-c2nc(CNCc3ccccc3-c3ccccc3)[nH]c2-c2ccc3ncnn3c2)n1 [Compound 24] | 0.1 to 50 | 0.1 to 10 |  |
| Cc1cccc(-c2nc(CNCc3ccccc3OC(F)(F)F)[nH]c2-c2ccc3ncnn3c2)n1 [Compound 26] | 0.1 to 50 | 0.1 to 10 |  |
| Cc1cccc(-c2nc(C34CCC(N)(CC3)CC4)[nH]c2-c2ccc3ncnn3c2)n1 [Compound 1.55] |  | 1000 to 10000 | 1000 to 10000 |
| Cc1cccc(-c2nc(CNCc3ccc(Cl)c(Cl)c3)[nH]c2-c2ccc3ncnn3c2)n1 [Compound 4] | 100 to 1000 | 100 to 1000 |  |
| Cc1cccc(-c2nc(CNCc3ccccc3CC(F)(F)F)[nH]c2-c2ccc3ncnn3c2)n1 [Compound 27] | 50 to 100 | 0.1 to 10 |  |
| Cc1cccc(-c2nc(CNCCc3ccccc3)[nH]c2-c2ccc3ncnn3c2)n1 [Compound 52] | 50 to 100 | 0.1 to 10 |  |
| Cc1cccc(-c2nc(CNCCN(C)c3ccccc3)[nH]c2-c2ccc3ncnn3c2)n1 [Compound 67] | 50 to 100 | 0.1 to 10 |  |
| Cc1cccc(-c2nc(CNCc3ccccc3-c3ccccc3)[nH]c2-c2ccc3ncccc3c2)n1 [Compound 91] | 100 to 1000 | 10 to 100 |  |
| Cc1cccc(-c2nc(CNCc3ccccc3C)[nH]c2-c2ccc3ncccc3n2)n1 [Compound 83] | 50 to 100 | 0.1 to 10 |  |
| Cc1cccc(-c2nc(CNC3CCCOC3)[nH]c2-c2ccc3ncnn3c2)n1 (stereo not shown) [Compound 1.15] |  | 10 to 100 | 100 to 1000 |
| Cc1cccc(-c2nc(CNCCN(C)c3ccccc3)[nH]c2-c2ccc3ncccc3n2)n1 [Compound 85] | 50 to 100 | 0.1 to 10 |  |
| Cc1cccc(-c2nc(CNCCNc3ccccc3)[nH]c2-c2ccc3ncnn3c2)n1 [Compound 66] | 100 to 1000 | 0.1 to 10 |  |
| Cc1cccc(-c2nc(CNCCOc3ccccc3)[nH]c2-c2ccc3ncnn3c2)n1 [Compound 65] | 100 to 1000 | 0.1 to 10 |  |
| Cc1cccc(-c2nc(CNCc3ccc(Cl)cc3)[nH]c2-c2ccc3ncnn3c2)n1 [Compound 3] | 1000 to 10000 | 10 to 100 |  |
| Cc1cccc(-c2nc(CNCc3ccccc3C(C)C)[nH]c2-c2ccc3ncnn3c2)n1 [Compound 23] | 50 to 100 | 0.1 to 10 |  |

| SMILES | IC50 (ALK5; Table 11) [nM] | IC50 [1] [nM] | IC50 (ALK5; Table 12) [nM] |
| --- | --- | --- | --- |
| Cc1cccc(-c2nc(CN[C@@H]3CCc4ccccc43)[nH]c2-c2ccn3ncnc3c2)n1 [Compound 1.30] |  | 10 to 100 | 100 to 1000 |
| Cc1cccc(-c2nc(CNCc3ccccc3-c3ccccc3CN)[nH]c2-c2ccc3ncnn3c2)n1 [Compound 32] | 100 to 1000 | 100 to 1000 |  |
| Cc1cccc(-c2nc(CNCc3ccccc3)[nH]c2-c2ccc3ncnn3c2)n1 [Compound 1, 1-(5-([1,2,4]triazolo[1,5-a]pyridin-6-yl)-4-(6-methylpyridin-2-yl)-1H-imidazol-2-yl)-N-benzylmethanamine] | 100 to 1000 | 0.1 to 10 |  |
| Cc1cccc(-c2nc(CN[C@@H](C)c3ccccc3)[nH]c2-c2ccc3ncnn3c2)n1 [Compound 12] | 1000 to 10000 | 100 to 1000 |  |
| Cc1cccc(-c2nc(CNCc3cccc(-c4ccccc4)c3C)[nH]c2-c2ccc3ncnn3c2)n1 [Compound 49] | 100 to 1000 | 10 to 100 |  |
| Cc1cccc(-c2nc(CNCc3ccccc3-c3ccc(F)cc3)[nH]c2-c2ccc3ncnn3c2)n1 [Compound 35] | 0.1 to 50 | 0.1 to 10 |  |
| Cc1cccc(-c2nc(CNC3CCCCC3C)[nH]c2-c2ccc3ncnn3c2)n1 (stereo not shown) [Compound 1.16] |  | 10 to 100 | 100 to 1000 |
| Cc1cccc(-c2nc(C3CCN(C(=O)OC(C)(C)C)C3)[nH]c2-c2ccc3ncnn3c2)n1 (stereo not shown) [Compound 1.51] |  | 100 to 1000 | 1000 to 10000 |
| Cc1cccc(-c2nc(CNCc3cccc(Cl)c3)[nH]c2-c2ccc3ncnn3c2)n1 [Compound 2] | 100 to 1000 | 10 to 100 |  |
| Cc1cccc(-c2nc(CNc3ccc4c(c3)C(N)CC4)[nH]c2-c2ccc3ncnn3c2)n1 (stereo not shown) [Compound 1.21] |  | 100 to 1000 | 100 to 1000 |
| Cc1cccc(CNCc2nc(-c3cccc(C)n3)c(-c3ccc4ncnn4c3)[nH]2)c1 [Compound 50] | 100 to 1000 | 10 to 100 |  |
| Cc1cccc(-c2nc(CNCCc3c(F)cccc3F)[nH]c2-c2ccc3c(c2)OCO3)n1 [Compound 81] | 0.1 to 50 | 10 to 100 |  |
| Cc1cccc(-c2nc(CNCCCc3ccccc3)[nH]c2-c2ccc3ncnn3c2)n1 [Compound 64] | 100 to 1000 | 0.1 to 10 |  |
| Cc1cccc(-c2nc(CNCc3ccccc3-c3cccc(CN)c3)[nH]c2-c2ccc3ncnn3c2)n1 [Compound 33] | 100 to 1000 | 100 to 1000 |  |
| Cc1cccc(-c2nc(CNCCc3ccc(F)cc3F)[nH]c2-c2ccc3ncnn3c2)n1 [Compound 63] | 100 to 1000 | 0.1 to 10 |  |
| Cc1cccc(-c2nc(CNCc3ccccc3-c3ccccc3CNC(=O)OC(C)(C)C)[nH]c2-c2ccc3ncnn3c2)n1 [Compound 29] | 100 to 1000 | 100 to 1000 |  |
| Cc1cccc(-c2nc(CNCc3ccccc3C3CCCCC3)[nH]c2-c2ccc3ncnn3c2)n1 [Compound 43] | 100 to 1000 | 100 to 1000 |  |
| Cc1cccc(-c2nc(CNCc3ccccc3C#N)[nH]c2-c2ccc3ncnn3c2)n1 [Compound 20] | 1000 to 10000 | 100 to 1000 |  |
| Cc1cccc(-c2nc(CNc3cccc4c3C(N)CC4)[nH]c2-c2ccc3ncnn3c2)n1 (stereo not shown) [Compound 1.20] |  | 100 to 1000 | 100 to 1000 |
| Cc1cccc(-c2nc(CNCCc3c(F)cccc3F)[nH]c2-c2ccc3nccnc3c2)n1 [Compound 82] | 0.1 to 50 | 0.1 to 10 |  |
| Cc1cccc(-c2nc(CNc3ccc4c(c3)CCC4N)[nH]c2-c2ccc3ncnn3c2)n1 (stereo not shown) [Compound 1.5] |  | 100 to 1000 | 100 to 1000 |
| Cc1cccc(-c2nc(CN[C@H](C)c3ccccc3)[nH]c2-c2ccc3ncnn3c2)n1 [Compound 11] | 100 to 1000 | 10 to 100 |  |
| Cc1cccc(-c2nc(CNCc3ccccc3-c3cccnc3)[nH]c2-c2ccc3ncnn3c2)n1 [Compound 41] | 50 to 100 | 0.1 to 10 |  |
